Assay results published in US6706722B2, “Heteroaryl derivatives and their use as medicaments” (Zentaris AG, priority 2000, dated 2004).

Experiments:
[1] = test system: ovary adenocarcinoma line SKOV-3 (ATCC HTB77); assay: XTT proliferation test (cellular dehydrogenase activity), SKOV-3; assay type: cell-based; settings: Homo sapiens, SK-OV-3, in-vitro cytotoxicity, values determined from 5 substance concentrations, 45 h incubation
Method: (§1) In a proliferation test, the antiproliferative activity of the substance D-43411 was examined using established tumor cell lines. The Cellular Dehydrogenation activity is determined in the test, which enables determination of the vitality of the cell and, indirectly, the cell count. The cell lines used are the human cervical carcinoma cell lines KB/HeLa (ATCC/CCL17), the murine lymphocyte leukemia L1210 (ATCC CCL-219), the human breast adenocarcinoma line MCF7/ATCC HTB22) and the ovary adenocarcinoma line SKOV-3 (ATCC HTB77). These are established cell lines which are very well characterized and were obtained from ATCC and cultured. XTT Test for Cellular Dehydrogenase Activity The adherently growing tumor cell lines HeLa/KB, SKOV-3 and MCF7 and the L1210 leukemia line, which grows in suspension, were cultivated under standard conditions in an incubator with gas inlet at 37° C., 5% CO2 and 95% atmospheric humidity. On Test Day 1, the adherent cells are detached using trypsine/EDTA and pelleted by centrifugation. […] The cell plates are then incubated in the incubator with gas inlet for a further 3 hours, and the optical density (OD490nm) is determined in a photometer. Using the OD490nm obtained, the inhibition is calculated in percent relative to the control. […]

[2] = test system: human cervical carcinoma cell lines KB/HeLa (ATCC/CCL17); assay: XTT proliferation test (cellular dehydrogenase activity), KB/HeLa; assay type: cell-based; settings: in-vitro cytotoxicity, values determined from 5 substance concentrations, 45 h incubation
Method: as §1

[3] = test system: murine lymphocyte leukemia L1210 (ATCC CCL-219); assay: XTT proliferation test (cellular dehydrogenase activity), L1210; assay type: cell-based; settings: Mus musculus, in-vitro cytotoxicity, values determined from 5 substance concentrations, 45 h incubation
Method: as §1

[4] = test system: human breast adenocarcinoma line MCF7 (ATCC HTB22); assay: XTT proliferation test (cellular dehydrogenase activity), MCF7; assay type: cell-based; settings: test period of 48 h
Method: as §1

Which results are given for `COc1cc(OC)cc(N2CCN(C(=O)c3c4ccccc4nc4ccccc34)CC2)c1` [D-43411, 1-(3,5-Dimethoxyphenyl)-4-(9-acridinyl-carbonyl)piperazine]?
IC50 [1]: < 0.3 ng/mL; melting point: 172 to 175 °C; IC50 [2]: < 0.3 ng/mL; IC50 [3]: < 0.3 ng/mL; inhibition at 3160 µg/mL ([4]; at 3.16 mg/ml): 18%; IC50 ([4]; in-vitro cytotoxicity, values determined from 5 substance concentrations): > 3160 ng/mL
